Holding throughout (assay): nitrocellulose filter binding of [3H]GDP
Common to all, as to details: read-out: apparent Kd

The target in assay [1] is T1, Ss-aIF2 (aIF2 heterotrimer, αβγ) (Saccharolobus solfataricus, UniProt Q980A5, D19A).
T1 construct: gene eif2g; full heterotrimer of α, β and γ subunits, purified; gamma from pET15b-Ss-aIF2γ; with Translation initiation factor 2 subunit alpha; Translation initiation factor 2 subunit beta

Assay [2] deals with T2, Ss-aIF2 (aIF2 heterotrimer, αβγ) (Saccharolobus solfataricus, UniProt Q980A5, H97A).
T2 construct: gene eif2g; full heterotrimer of α, β and γ subunits, purified; gamma from pET15b-Ss-aIF2γ; with Translation initiation factor 2 subunit alpha; Translation initiation factor 2 subunit beta

The target in assay [3] is T3, Ss-aIF2 (aIF2 heterotrimer, αβγ) (Saccharolobus solfataricus, UniProt Q980A5).
T3 construct: gene eif2g; full heterotrimer of α, β and γ subunits, purified; gamma from pET15b-Ss-aIF2γ; with Translation initiation factor 2 subunit alpha; Translation initiation factor 2 subunit beta
T3 sequence (Q97Z79 whole entry): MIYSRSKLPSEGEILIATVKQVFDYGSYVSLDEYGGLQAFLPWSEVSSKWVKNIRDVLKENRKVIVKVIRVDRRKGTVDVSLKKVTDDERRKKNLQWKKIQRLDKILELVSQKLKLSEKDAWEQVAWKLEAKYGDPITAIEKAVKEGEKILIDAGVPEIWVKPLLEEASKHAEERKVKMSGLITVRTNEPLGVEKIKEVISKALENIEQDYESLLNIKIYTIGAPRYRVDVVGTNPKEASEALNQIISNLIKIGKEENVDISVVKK
T3 sequence (Q97W59 whole entry, further chain): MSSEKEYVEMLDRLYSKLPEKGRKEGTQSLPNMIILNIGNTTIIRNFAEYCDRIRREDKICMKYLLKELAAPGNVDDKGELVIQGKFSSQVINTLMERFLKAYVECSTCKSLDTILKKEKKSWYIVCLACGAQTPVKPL
T3 sequence (Q980A5 whole entry): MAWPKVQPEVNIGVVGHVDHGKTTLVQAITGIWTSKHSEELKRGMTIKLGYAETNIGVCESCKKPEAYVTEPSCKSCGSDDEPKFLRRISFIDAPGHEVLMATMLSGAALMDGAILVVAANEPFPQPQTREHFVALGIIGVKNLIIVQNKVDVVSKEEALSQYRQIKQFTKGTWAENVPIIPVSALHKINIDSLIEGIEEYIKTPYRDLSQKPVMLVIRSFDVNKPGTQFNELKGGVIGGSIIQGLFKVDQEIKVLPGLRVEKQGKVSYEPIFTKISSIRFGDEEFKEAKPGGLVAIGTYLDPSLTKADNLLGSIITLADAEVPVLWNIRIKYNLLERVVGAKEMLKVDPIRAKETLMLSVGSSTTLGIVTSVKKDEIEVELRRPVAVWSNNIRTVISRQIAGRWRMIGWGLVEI

T2 sequence (Q980A5 whole entry H97A): as the sequence (Q980A5 whole entry) above, with H97A counted along it
T2 sequence (Q97W59 whole entry, further chain): as the sequence (Q97W59 whole entry, further chain) above
T2 sequence (Q97Z79 whole entry, further chain): as the sequence (Q97Z79 whole entry) above
T1 sequence (Q97W59 whole entry): as the sequence (Q97W59 whole entry, further chain) above
T1 sequence (Q97Z79 whole entry, further chain): as the sequence (Q97Z79 whole entry) above
T1 sequence (Q980A5 whole entry D19A): as the sequence (Q980A5 whole entry) above, with D19A counted along it

For the molecule `Nc1nc2c(ncn2[C@@H]2O[C@H](COP(=O)(O)OP(=O)(O)O)[C@@H](O)[C@H]2O)c(=O)[nH]1` [GDP], the Kd was 240 ± 100 nM in assay [1], 340 ± 100 nM in assay [2] and 520 ± 120 nM in assay [3].

These data come from PMC4357699, “Identification of a second GTP-bound magnesium ion in archaeal initiation factor 2” (Nucleic Acids Research, 2015).
